Results on one compound are retold here after patent US11260132B2, “Engineered liposomes as cancer-targeted therapeutics” (Children's Medical Center Corporation, priority 2017, dated 2022).

The test system of this experiment is MDA-MB-436 cells. As to the kind of experiment: CEL-Dox cytotoxicity, Dojindo cell viability assay (Example 1). The experiment is classed as cell-based, human. The conditions noted are these: 6 h treatment, grown 48 h, CEL-Dox at 1.5:1. The method, then: The cytotoxicity of CEL-Dox on TNBC cells were evaluated using a cell viability assay. 5×10^3 cells (MDA-MB-231 and MDA-MB-436) were seeded in each well of a 96 well plate and incubated for 24 h. Cells were treated with (1) PBS, (2) Free Dox, (3) non-specific IgG-conjugated, Dox-encapsulating liposomes (IgG-Dox-LPs), (4) ICAM-1 antibody-conjugated, Dox-encapsulating liposomes (ICAM-1-Dox-LP), (5) EGFR antibody-conjugated, Dox-encapsulating liposomes (EGFR-Dox-LP), and (6) Dox-encapsulating CELs at optimal ICAM-1/EGFR antibody ratios (4.2/1 for MDA-MB-231 cells, and 1.5/1 for MDA-MB-436 cells) at the final liposome concentration of 1 μM lipids per 10^6 cells for 6 hours. Cells were rinsed three times with PBS and grown for 48 hours. Cell viability was determined by a Dojindo cell counting kit using the protocol from the manufacturer (Rockville, Md.).

Each structure is given as a SMILES string.

Turning to `COc1cccc2c1C(=O)c1c(O)c3c(c(O)c1C2=O)C[C@@](O)(C(=O)CO)C[C@@H]3O[C@H]1C[C@H](N)[C@H](O)[C@H](C)O1` [free Dox, doxorubicin], the “half maximal inhibitory concentration (IC50)” value worked out at 0.0355 µg/mL.
